For one assay, the system named is rat cortical neurons. As to the kind of experiment: Neurite outgrowth assay. The assay is classed as cell-based. Particulars: 72 h, 10 μM or less, vs DMSO control. More on the design: key: A: Statistically significant mean increase as a percent of DMSO control at 10 μM or less.; B: No statistically significant mean increase as a percent of DMSO control at 10 μM or less. The text has this: Neurite Outgrowth Assay. Changes in the pattern of neurite outgrowth have been implicated in psychiatric and neurodegenerative disorders as well as traumatic injuries. The discovery of new compounds that can positively affect neuritogenesis are important for developing new therapeutics for neurological diseases. Measurement of neurite outgrowth of rat cortical neurons using an automated image-based assay was used to determine the neuroplastic effects of the compounds of the present invention. The neurite outgrowth assay was performed at Neurofit SAS (France) as described below.
Pregnant Wistar rats (Janvier; France) were used for the study. They were delivered 6 days before their use. Upon arrival at Neurofit animal facility, they were housed one per cage and maintained in a room with controlled temperature (21-22° C.) and a reversed light-dark cycle (12 h/12 h; lights on: 17:30-05:30; lights off: 05:30-17:30) with food and water available ad libitum.
Female Wistar rats of 17 days gestation were killed by cervical dislocation and the fetuses were removed from the uterus. Their brains were placed in ice-cold medium of Leibovitz (L15, Gibco, Fisher bioblock, France). Cortices were dissected and meninges were carefully removed. The cortical neurons were dissociated by trypsinization for 30 min at 37° C. (trypsin-EDTA, Gibco) in presence of 0.1 mg/ml DNAse I (Roche, France). The reaction was stopped by addition of Dulbecco's Modified Eagle Medium (DMEM; Gibco) with 10% of fetal bovine serum (FBS; Gibco). The suspension was triturated with a 10-ml pipette and using a needle syringe 21G and centrifuged at 350×g for 10 min at room temperature. The pellet of dissociated cells was resuspended in a medium consisting of Neurobasal (Gibco) supplemented with 2% B27 supplement (Gibco), 0.5 mM L-Glutamine (Gibco), an antibiotic-antimicotic mixture. Viable cells were counted in a Neubauer cytometer using the trypan blue exclusion test (Sigma). Cells were seeded at a density of 10000 cells per well in 96-well plate (Costar) precoated with poly-L-lysine. Test compound at different concentrations were added to the cultures. Donepezil (positive control) was tested at 250 nM.
After 72 h (3 days) of plating, cultures were fixed with paraformaldehyde in PBS (4%, Sigma) for 30 min at 4° C. Then, cells were successively permeabilized with 0.1% Triton X100 for 30 min, saturated with PBS containing 3% of BSA and were incubated 1 h with anti-beta III tubulin antibody (Sigma) at 1/10 000 in PBS containing 0.5% of BSA. Cells were washed three times with PBS containing 0.5% of BSA, and they were incubated 1 h with goat anti-mouse antibody coupled with AF488 (Invitrogen A 11001) diluted at 1/1000 in PBS containing 0.5% of BSA. Finally, nuclei were staining with DAPI 1 mg/ml at 1/1000 in PBS containing 0.5% of BSA. After rinsing with PBS, the plate was filmed and neurite networks were examined and analyzed using High-Content Screening (CellInsight, Thermo Scientific). The average number of neurites per neuron and the average total length of neurites per neuron were the main parameters analyzed. Analysis of data was performed using analysis of variance (ANOVA). The Fisher's Protected Least Significant Difference test was used for multiple comparisons. A p value≤0.05 was considered significant. The software used is StatView 5.0 from SAS Institut.

The target in assay [1] is T1, 5-HT2A (Homo sapiens, UniProt P28223). Put plainly: Serotonin 5-HT2A in vitro cellular IPOne antagonism assay. The note with it: CHO-K1 cells, antagonist mode, reference agonist a-Me-5HT. More on the design: host or cells: CHO-K1. The assay is classed as cell-based. Here is the method: Serotonin 5-HT2A and 5-HT2C In Vitro Cellular IPOne Antagonism Assay. The 5-HT2A IPOne HTRF assay was performed at Epics Therapeutics S.A. (Belgium, FAST-0505I) in antagonism mode using conventional methods. Briefly, CHO-K1 cells expressing human recombinant 5-HT2A receptor grown to mid-log phase in culture media without antibiotics were detached with PBS-EDTA, centrifuged, and resuspended in medium without antibiotics buffer. 20,000 cells were distributed in a 96 well plate and incubated overnight at 37° C. with 5% CO2.
T1 sequence (P28223 whole entry): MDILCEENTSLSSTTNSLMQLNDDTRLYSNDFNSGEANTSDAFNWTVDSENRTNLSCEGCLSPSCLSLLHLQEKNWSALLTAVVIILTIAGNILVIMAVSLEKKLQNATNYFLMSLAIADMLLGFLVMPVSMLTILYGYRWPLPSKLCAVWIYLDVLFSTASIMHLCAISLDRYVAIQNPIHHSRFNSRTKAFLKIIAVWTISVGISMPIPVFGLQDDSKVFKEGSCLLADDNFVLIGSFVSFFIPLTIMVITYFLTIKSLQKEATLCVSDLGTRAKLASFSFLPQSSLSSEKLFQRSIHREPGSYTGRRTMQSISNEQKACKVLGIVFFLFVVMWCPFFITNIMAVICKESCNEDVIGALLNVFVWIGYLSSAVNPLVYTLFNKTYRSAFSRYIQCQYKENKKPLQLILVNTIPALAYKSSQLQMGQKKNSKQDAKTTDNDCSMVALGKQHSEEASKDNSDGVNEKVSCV
For antagonist testing, a reference agonist a-Me-5HT was added and fluorescence signal monitored for several minutes, followed by addition of 20 μl of assay buffer plus 20 μl of test compound or reference antagonist ketanserin, in each well. The plate was incubated for 60 min. at 37° C. with 5% CO2.
(§1) After addition of the lysis buffer containing IP1-d2 and anti-IP1 cryptate detection reagents, plates were incubated 1-hour at room temperature, and fluorescence ratios were measured according to the manufacturer specification, with the HTRF kit.

Assay [2] deals with T1, 5-HT2A. As to the kind of experiment: Serotonin 5-HT2A in vitro cellular IPOne agonism assay (HTRF). The assay is classed as cell-based. More on the design: host or cells: CHO-K1. The note with it: CHO-K1 cells, agonist mode. Here is the method:
Serotonin 5-HT2A In Vitro Cellular IPOne Agonism Assay. The 5-HT2A IPOne HTRF assay was performed at Epics Therapeutics S.A. (Belgium, FAST-0505I) using conventional methods. Briefly, CHO-K1 cells expressing human recombinant 5-HT2A receptor grown to mid-log phase in culture media without antibiotics were detached with PBS-EDTA, centrifuged, and resuspended in medium without antibiotics buffer. 20,000 cells were distributed in a 96 well plate and incubated overnight at 37° C. with 5% CO2.
For agonist testing, the medium was removed and 20 μl of assay buffer plus 20 μl of test compound or reference agonist are added in each well. The plate was incubated for 60 min. at 37° C. with 5% CO2.
as §1

The target in assay [3] is T1, 5-HT2A. As to the kind of experiment: Serotonin 5-HT2A in vitro radioligand binding competition assay ([3H]-DOI). Further details: purchased Epics Therapeutics S.A. (Belgium) FAST-0505B; host or cells: membrane extracts. Particulars: [3H]-DOI competition, membrane extracts. Here is the method:
Serotonin 5-HT2A In Vitro Radioligand Binding Competition Assay. The 5-HT2A radioligand binding competition assay was performed at Epics Therapeutics S.A. (Belgium, FAST-0505B) using conventional methods. Briefly, competition binding was performed in duplicate in the wells of a 96 well plate (Master Block, Greiner, 786201) containing binding buffer (optimized for each receptor), membrane extracts (amount of protein/well optimized for each receptor), radiotracer [^3H]-DOI (final concentration optimized for each receptor) and test compound. Nonspecific binding was determined by co-incubation with 200-fold excess of cold competitor. The samples were incubated in a final volume of 0.1 ml at a temperature and for a duration optimized for each receptor and then filtered over filter plates. Filters were washed six times with 0.5 ml of ice-cold washing buffer (optimized for each receptor) and 50 μl of Microscint 20 (Packard) was added in each well. The plates were incubated 15 min on an orbital shaker and then counted with a TopCount™ for 1 min/well.

For the compound `CN1CCc2[nH]c3cc(OCc4ccc(F)cc4)ccc3c2CC1` [Compound 8, 8-((4-fluorobenzyl)oxy)-3-methyl-1,2,3,4,5,6-hexahydroazepino[4,5-b]indole], in the assay with rat cortical neurons, the “Increase in Neurite Branching” value is “A”, the “Increase in Neurite Length” value was “A” and the “Increase in Neurite Number” value is “A”. Besides, on 5-HT2A [1], the IC50 fell in the range of 10 to 100 nM. For the same compound, on 5-HT2A [2], the EC50 is over 10000 nM. This compound also displayed an IC50 on 5-HT2A [3] of 101 to 1000 nM.
On to `Cn1c2c(c3ccc(OCc4ccc(F)cc4)cc31)CCNCC2` [Compound 9, 8-((4-fluorobenzyl)oxy)-6-methyl-1,2,3,4,5,6-hexahydroazepino[4,5-b]indole], for which, in the assay with rat cortical neurons, the “Increase in Neurite Branching” value is recorded as “B”, the “Increase in Neurite Length” value is listed as “B” and the “Increase in Neurite Number” value was “B”. Further, at 5-HT2A [1], the IC50 was in the range of 101 to 1000 nM. Moreover, the EC50 on 5-HT2A [2] is over 10000 nM. Besides, the concentration for half-maximal inhibition (IC50) on 5-HT2A [3] fell in the range of 101 to 1000 nM.
For the compound `CN1CCc2c(n(C)c3cc(OCc4ccc(F)cc4)ccc23)CC1` [Compound 10, 8-((4-fluorobenzyl)oxy)-3,6-dimethyl-1,2,3,4,5,6-hexahydroazepino[4,5-b]indole], in the assay with rat cortical neurons, the “Increase in Neurite Length” value is “B”. Besides, the IC50 on 5-HT2A [1] is 10 to 100 nM; at 5-HT2A [3], 101 to 1000 nM. This compound yielded an EC50 on 5-HT2A [2] of over 10000 nM.
With `CN1CCc2[nH]c3cc(Oc4ccccc4)ccc3c2CC1` [Compound 12, 3-methyl-8-phenoxy-1,2,3,4,5,6-hexahydroazepino[4,5-b]indole], in the assay with rat cortical neurons, the “Increase in Neurite Branching” value is recorded as “A”, the “Increase in Neurite Length” value is given as “A” and the “Increase in Neurite Number” value was “A”. Besides, on 5-HT2A [1], the IC50 fell in the range of 101 to 1000 nM. The same compound came in with an EC50 on 5-HT2A [2] of over 10000 nM. On 5-HT2A [3], the IC50 fell in the range of 101 to 1000 nM.
As to `CN1CCc2c(n(C)c3cc(Oc4ccccc4)ccc23)CC1` [Compound 14, 3,6-dimethyl-8-phenoxy-1,2,3,4,5,6-hexahydroazepino[4,5-b]indole], in the assay on rat cortical neurons, the “Increase in Neurite Branching” value is listed as “B”, the “Increase in Neurite Length” value is listed as “A” and the “Increase in Neurite Number” value was “B”. Further, the IC50 on 5-HT2A [1] lay in the range of 1000 to 10000 nM. The same compound came in with an EC50 on 5-HT2A [2] of over 10000 nM. The IC50 at 5-HT2A [3] was in the range of 1000 to 10000 nM.
`CN1CCc2[nH]c3cc(Oc4ccc(F)cc4)ccc3c2CC1` [Compound 16, 8-(4-fluorophenoxy)-3-methyl-1,2,3,4,5,6-hexahydroazepino[4,5-b]indole]: in the assay with rat cortical neurons, the “Increase in Neurite Branching” value is given as “A”, the “Increase in Neurite Length” value is listed as “A” and the “Increase in Neurite Number” value was “B”. In addition, the concentration for half-maximal inhibition (IC50) at 5-HT2A [1] was 101 to 1000 nM. The EC50 on 5-HT2A [2] is over 10000 nM. Further, the IC50 at 5-HT2A [3] fell in the range of 101 to 1000 nM.
As for `CN1CCc2c(n(C)c3cc(Oc4ccc(F)cc4)ccc23)CC1` [Compound 18, 8-(4-fluorophenoxy)-3,6-dimethyl-1,2,3,4,5,6-hexahydroazepino[4,5-b]indole], in the assay on rat cortical neurons, the “Increase in Neurite Branching” value was “A”, the “Increase in Neurite Length” value was “A” and the “Increase in Neurite Number” value is recorded as “A”. For the same compound, on 5-HT2A [1], the IC50 lay in the range of 101 to 1000 nM. At 5-HT2A [2], this compound returned an EC50 of over 10000 nM. On 5-HT2A [3], the IC50 lay within 101 to 1000 nM.
Turning to `Cn1c2c(c3c(OCc4ccccc4)cccc31)CCNCC2` [Compound 19, 10-(benzyloxy)-6-methyl-1,2,3,4,5,6-hexahydroazepino[4,5-b]indole], in the assay on rat cortical neurons, the “Increase in Neurite Branching” value is reported as “B”, the “Increase in Neurite Length” value is “B” and the “Increase in Neurite Number” value is on record as “B”. Besides, at 5-HT2A [1], the half-maximal inhibitory concentration (IC50) is 101 to 1000 nM. In addition, the EC50 at 5-HT2A [2] was 1000 to 10000 nM. At 5-HT2A [3], this compound had an IC50 of 101 to 1000 nM.
As for `CN1CCc2[nH]c3cccc(Oc4ccc(F)cc4)c3c2CC1` [Compound 22, 10-(4-fluorophenoxy)-3-methyl-1,2,3,4,5,6-hexahydroazepino[4,5-b]indole], in the assay with rat cortical neurons, the “Increase in Neurite Branching” value is listed as “A”, the “Increase in Neurite Length” value is “A” and the “Increase in Neurite Number” value is “A”. Besides, the IC50 on 5-HT2A [1] was in the range of 10 to 100 nM. This compound also came in with an EC50 at 5-HT2A [2] of over 10000 nM. The same compound displayed an IC50 on 5-HT2A [3] of 10 to 100 nM.
Turning to `CN1CCc2c(n(C)c3cccc(Oc4ccc(F)cc4)c23)CC1` [Compound 24, 10-(4-fluorophenoxy)-3,6-dimethyl-1,2,3,4,5,6-hexahydroazepino[4,5-b]indole], in the assay on rat cortical neurons, the “Increase in Neurite Branching” value is listed as “B”, the “Increase in Neurite Length” value is listed as “A” and the “Increase in Neurite Number” value is “B”. Moreover, the IC50 at 5-HT2A [1] is 10 to 100 nM. Further, the EC50 on 5-HT2A [2] is over 10000 nM. This compound returned an IC50 at 5-HT2A [3] of 10 to 100 nM.
For the compound `c1ccc(COc2ccc3[nH]c4c(c3c2)CCNCC4)cc1` [Compound 25, 9-(benzyloxy)-1,2,3,4,5,6-hexahydroazepino[4,5-b]indole], in the assay with rat cortical neurons, the “Increase in Neurite Length” value is listed as “A”. Further, the IC50 on 5-HT2A [1] and on 5-HT2A [3] was 101 to 1000 nM throughout. Also, the EC50 at 5-HT2A [2] is over 10000 nM.
Consider `CN1CCc2[nH]c3ccc(OCc4ccccc4)cc3c2CC1` [Compound 26, 9-(benzyloxy)-3-methyl-1,2,3,4,5,6-hexahydroazepino[4,5-b]indole], for which, in the assay on rat cortical neurons, the “Increase in Neurite Branching” value is “A”, the “Increase in Neurite Length” value is listed as “A” and the “Increase in Neurite Number” value is on record as “A”. Also, the concentration for half-maximal inhibition (IC50) on 5-HT2A [1] was 101 to 1000 nM. In addition, the EC50 on 5-HT2A [2] was over 10000 nM. The IC50 on 5-HT2A [3] lay within 101 to 1000 nM.
Take `CN1CCc2[nH]c3c(OCc4ccccc4)cccc3c2CC1` [Compound 28, 7-(benzyloxy)-3-methyl-1,2,3,4,5,6-hexahydroazepino[4,5-b]indole]: in the assay with rat cortical neurons, the “Increase in Neurite Branching” value is given as “A”, the “Increase in Neurite Length” value is listed as “A” and the “Increase in Neurite Number” value is on record as “A”. The compound further had an IC50 on 5-HT2A [1] of 10 to 100 nM. At 5-HT2A [2], this compound yielded an EC50 of over 10000 nM. In addition, the IC50 at 5-HT2A [3] was 10 to 100 nM.
